Assay results taken from patent US6355799B1, “Substituted benzene compounds, process for their preparation, and herbicidal and defoliant compositions containing them” (ISK Americas Incorporated, priority 1997, dated 2002).

What was measured:
Assay type in all cases: in vivo
[1] = system: redroot pigweed (Amaranthus retroflexus, AMARE); experiment: Pre-emerge test, greenhouse herbicide activity screening; details: pre-emerge, 14 days after application, scale 0-100
Summary of the method: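 Compounds in acetone were track-sprayed at 187 l/ha, 15–1000 g ai/ha, onto sandy loam pots. Pre-emerge seeds were sown one day before spraying, with surface watering afterwards. Post-emerge plants were at the 2–3 leaf stage and sprayed with 0.25% v/v non-ionic surfactant. Injury was rated 0–100 at 14 days.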

[2] = system: upland rice (Oryza sp., var. Tebonnet, RICE); experiment: Pre-emerge test, crop safety; details: pre-emerge, 14 days after application, scale 0-100
Summary of the method: (§1)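 Sandy loam pots; pre-emerge: sown 1 d pre-spray, surface-watered after, then bottom-watered. Post-emerge: sown 8–21 d before, 2–3 leaf stage, + 0.25% v/v NIS, bottom-watered. Acetone, 187 l/ha track spray, 15–1000 g ai/ha. 0–100 injury score, day 14.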

[3] = system: field corn (Zea mays L., var. Dekalb 535, CORN); experiment: Pre-emerge test, crop safety; details: pre-emerge, 14 days after application, scale 0-100
Summary of the method: as §1

[4] = system: large crabgrass (Digitaria sanguinalis, DIGSA); experiment: Pre-emerge test, greenhouse herbicide activity screening; details: pre-emerge, 14 days after application, scale 0-100
Excerpt: (§2) A standard greenhouse herbicide activity screening system was used to evaluate the herbicidal efficacy and crop safety of these test compounds. Seven broadleaf weed species including redroot pigweed (Amaranthus retroflexus, AMARE, velvetleaf (Abutilon theophrasti, ABUTH), sicklepod (Cassia obtusifolia, CASOB), ivyleaf morningglory (Ipomoea hederacea, IPOHE), lambsquarters (Chenopodium album, CHEAL), common ragweed (Ambrosia artemisizfolia L., AMBEL), and cocklebur (Xanthium strumarium, XANST) were used as test species. Four grass weed species including green foxtail (Setaria viridis, SETVI), barnyardgrass (Echinochloa crus-galli, ECHCG), johnsongrass (Sorghum halepense, SORHA), and large crabgrass (Digitaria sanguinalis, DIGSA) were also used. In addition, three crop species, field corn (Zea mays L., var. Dekalb 535, CORN), soybean (Glycine max L., var. Pella 86, SOY), and is upland rice (Oryza sp., var. Tebonnet, RICE) were included.
(§3) All plants were grown in 10 cm square plastic pots which were filled with a sandy loam soil mix. For pre-emerge tests, seeds were planted one day prior to application of the test compounds. For post-emerge tests, seeds were planted 8-21 days prior to the test to allow emergence and good foliage development prior to application of the test substances. At the time of the post-emerge application, plants of all species were usually at the 2-3 leaf stage of development.
(§4) All test compounds Were dissolved in acetone and applied to the test units in a volume of 187 l /ha. Test materials were applied at rates ranging from 15 g ai/ha to 1000 g ai/ha using a track sprayer equipped with a TJ8001E even flow flat fan spray nozzle. Plants were arranged on a shelf so that the top of the canopy (post-emerge) or top of the soil surface (pre-emerge) was 40-45 cm below the nozzle. Pressurized air was used to force the test solution through the nozzle as it was mechanically advanced (via electrically driven chain drive) over the top of all test plants/pots. This application simulates a typical commercial field herbicide application.
(§5) In the post-emerge test, a commercial non-ionic surfactant was also included (0.25% v/v) to enhance wetting of the leaf surfaces of target plants. Immediately after application, test units of the pre-emerge applications were watered at the soil surface to incorporate the test materials. Subsequently, these test units were bottom-watered. Post-emerge test units were always bottom-watered.
(§6) At 14 days after application of the test materials, phytotoxicity ratings were recorded. A rating scale of 0-100 was used as previously described in Research Methods in Weed Science, 2nd edition, B. Truelove, Ed., Southern Weed Science Society, Auburn University, Auburn, Ala. 1977. Briefly, “0” corresponds to no damage and “100” corresponds to complete death of all plants in the test unit. This scale was used both to determine efficacy against weed species and damage to crop species. Herbicide activity data for various compounds of this invention, which are shown by compound No. in Tables 1-8, are shown in Tables 11 and 12.

[5] = system: velvetleaf (Abutilon theophrasti, ABUTH); experiment: as above; details: pre-emerge, 14 days after application, scale 0-100
Excerpt: as §2, §3, §4, §5, §6

[6] = system: green foxtail (Setaria viridis, SETVI); experiment: as above; details: pre-emerge, 14 days after application, scale 0-100
Excerpt: as §2, §3, §4, §5, §6

[7] = system: barnyardgrass (Echinochloa crus-galli, ECHCG); experiment: as above; details: pre-emerge, 14 days after application, scale 0-100
Excerpt: as §2, §3, §4, §5, §6

[8] = system: ivyleaf morningglory (Ipomoea hederacea, IPOHE); experiment: as above; details: pre-emerge, 14 days after application, scale 0-100
Excerpt: as §2, §3, §4, §5, §6

[9] = system: sicklepod (Cassia obtusifolia, CASOB); experiment: as above; details: pre-emerge, 14 days after application, scale 0-100
Excerpt: as §2, §3, §4, §5, §6

[10] = system: lambsquarters (Chenopodium album, CHEAL); experiment: as above; details: pre-emerge, 14 days after application, scale 0-100
Excerpt: as §2, §3, §4, §5, §6

[11] = system: upland rice (Oryza sp., var. Tebonnet, RICE); experiment: Post-emerge test, crop safety; details: post-emerge, 14 days after application, rating scale 0-100
Summary of the method: (§7)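 Applied at 15–1000 g ai/ha from acetone in 187 l/ha spray volume. Post-emergence applications included 0.25% v/v non-ionic surfactant and reached plants sown 8–21 days before. Pre-emergence applications were incorporated by surface watering. Efficacy or crop damage was rated on a 0–100 scale after 14 days.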

[12] = system: field corn (Zea mays L., var. Dekalb 535, CORN); experiment: Post-emerge test, crop safety; details: post-emerge, 14 days after application, rating scale 0-100
Summary of the method: as §7

[13] = system: large crabgrass (Digitaria sanguinalis, DIGSA); experiment: Post-emerge test, greenhouse herbicide activity screening; details: post-emerge, 14 days after application, rating scale 0-100
Excerpt: as §2, §3, §4, §5, §6

[14] = system: velvetleaf (Abutilon theophrasti, ABUTH); experiment: as above; details: post-emerge, 14 days after application, rating scale 0-100
Excerpt: as §2, §3, §4, §5, §6

[15] = system: green foxtail (Setaria viridis, SETVI); experiment: as above; details: post-emerge, 14 days after application, rating scale 0-100
Excerpt: as §2, §3, §4, §5, §6

[16] = system: barnyardgrass (Echinochloa crus-galli, ECHCG); experiment: as above; details: post-emerge, 14 days after application, rating scale 0-100
Excerpt: as §2, §3, §4, §5, §6

[17] = system: ivyleaf morningglory (Ipomoea hederacea, IPOHE); experiment: as above; details: post-emerge, 14 days after application, rating scale 0-100
Excerpt: as §2, §3, §4, §5, §6

[18] = system: sicklepod (Cassia obtusifolia, CASOB); experiment: as above; details: post-emerge, 14 days after application, rating scale 0-100
Excerpt: as §2, §3, §4, §5, §6

[19] = system: redroot pigweed (Amaranthus retroflexus, AMARE); experiment: as above; details: post-emerge, 14 days after application, rating scale 0-100
Excerpt: as §2, §3, §4, §5, §6

[20] = system: lambsquarters (Chenopodium album, CHEAL); experiment: as above; details: post-emerge, 14 days after application, rating scale 0-100
Excerpt: as §2, §3, §4, §5, §6

COc1c(C#N)cc(F)c(-n2c(=O)cc(C(F)(F)F)n(C)c2=O)c1NC(=O)c1ccc2ccccc2c1 [2-181]
5: phytotoxicity rating CORN (crop damage) ([3]; 250 g ai/ha)
0: phytotoxicity rating CORN (crop damage) ([3]; 63 g ai/ha)
30: phytotoxicity rating IPOHE ([8]; 63 g ai/ha) | DIGSA phytotoxicity rating ([13]; 63 g ai/ha)
90: phytotoxicity rating DIGSA ([4]; 250 g ai/ha) | phytotoxicity rating CASOB ([9]; 250 g ai/ha)
60: phytotoxicity rating DIGSA ([4]; 63 g ai/ha) | RICE phytotoxicity rating (crop damage) ([11]; 250 g ai/ha) | ECHCG phytotoxicity rating ([16]; 250 g ai/ha)
70: phytotoxicity rating SETVI ([6]; 63 g ai/ha) | DIGSA phytotoxicity rating ([13]; 250 g ai/ha) | SETVI phytotoxicity rating ([15]; 63 g ai/ha)
100: phytotoxicity rating AMARE ([1]; 63 g ai/ha) | phytotoxicity rating AMARE ([1]; 250 g ai/ha) | phytotoxicity rating ABUTH ([5]; 63 g ai/ha) | phytotoxicity rating ABUTH ([5]; 250 g ai/ha) | phytotoxicity rating CHEAL ([10]; 63 g ai/ha) | phytotoxicity rating CHEAL ([10]; 250 g ai/ha) | ABUTH phytotoxicity rating ([14]; 63 g ai/ha) | ABUTH phytotoxicity rating ([14]; 250 g ai/ha) | IPOHE phytotoxicity rating ([17]; 63 g ai/ha) | IPOHE phytotoxicity rating ([17]; 250 g ai/ha) | CASOB phytotoxicity rating ([18]; 63 g ai/ha) | CASOB phytotoxicity rating ([18]; 250 g ai/ha) | AMARE phytotoxicity rating ([19]; 63 g ai/ha) | AMARE phytotoxicity rating ([19]; 250 g ai/ha) | CHEAL phytotoxicity rating ([20]; 63 g ai/ha) | CHEAL phytotoxicity rating ([20]; 250 g ai/ha)
20: CORN phytotoxicity rating (crop damage) ([12]; 250 g ai/ha)
40: phytotoxicity rating ECHCG ([7]; 63 g ai/ha) | ECHCG phytotoxicity rating ([16]; 63 g ai/ha)
10: phytotoxicity rating CASOB ([9]; 63 g ai/ha) | CORN phytotoxicity rating (crop damage) ([12]; 63 g ai/ha)
80: phytotoxicity rating RICE (crop damage) ([2]; 250 g ai/ha) | phytotoxicity rating ECHCG ([7]; 250 g ai/ha) | phytotoxicity rating IPOHE ([8]; 250 g ai/ha) | SETVI phytotoxicity rating ([15]; 250 g ai/ha)
95: phytotoxicity rating SETVI ([6]; 250 g ai/ha)
15: phytotoxicity rating RICE (crop damage) ([2]; 63 g ai/ha) | RICE phytotoxicity rating (crop damage) ([11]; 63 g ai/ha)
